Experimental data as given in patent US11945881B2, “Neoantigens expressed in ovarian cancer and their uses” (Janssen Biotech, Inc., priority 2020, dated 2024).

Experiments:
CD4+ T cells = assay: exogenous autologous normal donor restimulation assay, TNFα/IFNγ double positive CD4+ T cells by flow cytometry; format: cell-based, human; details: donor independent, peptide pool 10 μg/mL, healthy donors; for Fold change (CD4+) vs. DMSO: maximum CD4+ T-cell response (TNFα and IFNγ); for Frequency (TNFα + IFNγ + CD4 T cells): maximum CD4+ T-cell response
Method: (§1) The immunogenicity of neoantigens was assessed using the exogenous autologous normal donor restimulation assay. […] The lyophilized peptides were solubilized in 100% DMSO.
(§2) CD1c+ Dendritic Cells (CD1c+DC) isolated from human healthy PBMCs were thawed using media (IMDM (Gibco) supplemented with glutamine, HEPES, 5% human serum (Sigma), and 1× Pen-Strep). DC cells were resuspended in media supplemented with IL-4 (Peprotech, 20 ng/mL) and GM-CSF (Gibco, 20 ng/mL), plated in 6 well microplates, and rested overnight at 37° C. and 5% CO2 incubator. The following day, DC cells were counted and plated in a 96 well round bottom microplate at a concentration of 30,000 viable cells per well. Lyophilized neoantigen peptide pools (15-mer peptides with 8-mer overlapping peptide sequences) were solubilized in 100% DMSO with a stock concentration of 20 mg/mL Neoantigen peptides pools were added to DCs for a final concentration of 10 μg/mL and rested for 2 hours at 37° C. and 5% CO2 incubator. CEF Peptide Pool “Plus” (Cellular Technologies, Ltd.) was utilized as a positive control (each viral peptide at a final concentration of 4 ug/ml) and DMSO at the same final concentration (0.05%) as the experimental peptides was utilized as a negative control. After 2 hours, DC cells were irradiated with 50 gray of ionizing radiation. Autologous CD3+ Pan-T cells isolated from human normal PBMCs were thawed using media. Following irradiation, autologous Pan-T cells were added to the irradiated DCs at 300,000 viable cells per well. Human IL-15 (Peprotech) was added to all wells at final concentration of 10 ng/ml. Plates were incubated at 37° C. and 5% CO2 incubator for a total of 12 days. Media was refreshed every 2-3 days with IL-15 (R&D System, 10 ng/mL final concentration) and IL-2 (R&D systems, 10 IU/mL final concentration).
(§3) On Day 11, cells were re-stimulated with identical experimental peptide pools or controls, at same concentration as peptide stimulation on Day 1. Protein Inhibitor Cocktail (eBioscience) was added to every well and plate was incubated overnight for 14-16 hours at 37° C. and 5% CO2 incubator. On Day 12, cells were stained for surface and intracellular flow cytometry analysis. The cells were washed with PBS and stained with Live/Dead Fixable Aqua Dead Cell stain (Thermo-Fisher). Following the live/dead stain, cells were blocked using Biotin-Fre Fc Receptor Blocker (Accurate Chemical & Scientific Corp). Extracellular cellular flow panel ([…] per well in 50 μL) consisted of CD3 PerCP-Cy5.5 (Biolegend), CD4 BV421 (Biolegend), and CD8 APC-Cy7 (Biolegend). After extracellular staining, cells were fixed and permeabilized using Foxp3/Transcription Factor Staining Buffer Set (eBioscience) and stained for intracellular proteins (1:50 dilution) using TNFα FITC (R&D Systems) and IFNγ BV785 (Biolegend). Cells were washed and resuspended in stain buffer, analyzed, and recorded in a BD Celesta flow cytometer.
(§4) Flow cytometry analysis was conducted on FlowJo v10.6 software. Cells were gated on live, singlet, CD3+, CD4+ and CD8+ T cells. The CD8+ and CD4+ T cells were analyzed for TNFα and IFNγ expression.
(§5) The immunogenicity of neoantigens was first investigated in 9-16 healthy donors.

CD8+ T cells = assay: exogenous autologous normal donor restimulation assay, TNFα/IFNγ double positive CD8+ T cells by flow cytometry; format: cell-based, human; details: for Fold change (CD8+) vs. DMSO: maximum CD8+ T-cell response (TNFα and IFNγ); for Fold change (CD8+) vs. DMSO / Frequency (TNFα + IFNγ + CD8 T cells): donor independent, peptide pool 10 μg/mL, healthy donors; for Frequency (TNFα + IFNγ + CD8 T cells): maximum CD8+ T-cell response; for Immunogenic (yes/no): positive if CD8+ and/or CD4+ double positive TNFα/IFNγ frequency >=3-fold over DMSO and at least 0.01%
Method: as §1, §2, §3, §4, §5

Sequence	Fold change (CD4+) vs. DMSO (CD4+ T cells) [fold]	Frequency (TNFα + IFNγ + CD4 T cells) (CD4+ T cells) [%]	Fold change (CD8+) vs. DMSO (CD8+ T cells) [fold]	Frequency (TNFα + IFNγ + CD8 T cells) (CD8+ T cells) [%]	Immunogenic (yes/no) (CD8+ T cells)
AAEQAGCMQCLI [FUS8, neoantigen, gene fusion TYSND1->AIFM2]	5.93	0.029	6.27	0.12	yes
ALTVVPPGLRLDRVLLHLW [FUS27, neoantigen, gene fusion C17orf99->SYNGR2]	10.37	0.021	19.77	0.43	Yes
AMAKKQRPDTAFWVQH [AS12, neoantigen, alternative splicing of IQGAP3]	8.4	0.017	6.05	0.13	Yes
APILAAIGIGRLLCMDKIPATASLTP [FUS3, neoantigen, gene fusion PTH2R->LOC101927960]	5.02	0.025	158.8	0.74	yes
APSCGVSRAICDRGCH [AS79, neoantigen, alternative splicing of FBN3]	5.85	0.12	2.88	0.076	Yes
CDPAAPRAVSLPGRQGSEGGEGRGLGSRPAVLGRHSSGEGGGPWGELP [AS133, neoantigen, alternative splicing of HRAS]	54.15	0.16	171.88	0.84	Yes
CLRPSLSLASRGFQNP [AS88, neoantigen, alternative splicing of UPK3B]	15.85	0.062	3.13	0.063	Yes
EEDREKYRWMAPFVPGQVWTWEYFL [AS28, neoantigen, alternative splicing of HYDIN]	12.43	0.17	8.82	0.15	Yes
FKIPKFSIVLSSNSAFRCDPLSSRPRCFGGSLEAP [AS27, neoantigen, alternative splicing of GTSE1]	31.11	0.063	108.36	0.35	Yes
FLIVAEIVTLLIAFI [FUS20, neoantigen, gene fusion CMTM8->CMTM7]	2.36	0.019	28.23	0.54	Yes
FQETWLAEDAAAGALSPCTIPTPPQPPLLSLPTSSGTRQ [AS97, neoantigen, alternative splicing of ETV4]	6.12	0.15	433.66	1.34	Yes
GDPAKVVEIPRLL [AS31, neoantigen, alternative splicing of MECR]	6.91	0.016	4.54	0.045	Yes
GFILIGWGAGNLVLETSSGFIKHRS [AS69, neoantigen, alternative splicing of PTH2R]	9.21	0.011	260.42	1	Yes
GGLTLGARNTLTHGSPGPSQATVAVAPLSGRAAVSAAGGCVFLLLPACVPRRCHWIP [FUS16, neoantigen, gene fusion NDUFA11->FUT5]	12.58	0.045	261.6	5.69	yes
GTMEVKSKKKQTTVPLVQTR [AS67, neoantigen, alternative splicing of PARD6B]	3.15	0.028	6.36	0.17	Yes
HFECYHCEIRIPRKSNGIRGFLLTWRRDGNTSTSVQQTTSSL [FUS11, neoantigen, gene fusion AJUBA->HAUS4]	39.13	0.14	3.3	0.071	yes
HFSRLCGPVSHLSAHLAHLR [AS119, neoantigen, alternative splicing of SMAD6]	4.17	0.027	1.32	0.037	Yes
IGKGSFGKFLEDATHMV [AS36, neoantigen, alternative splicing of STK32C]	3.36	0.04	7.44	0.45	Yes
IPPHLQWESTRQTEWISVREFHLESSLYP [AS61, neoantigen, alternative splicing of IGF2BP3]	4.26	0.038	4.86	0.13	Yes
KHHLWALEAAWLSGRSPLSEPQLPLQPSGNSSSV [AS120, neoantigen, alternative splicing of STRA6]	2.01	0.013	6.24	0.067	Yes
